Values quoted from earlier work, collected in patent US11737976B2, “Drug delivery means” (priority 2006, dated 2023).
Read-outs that look alike come from different tables or passages of the source.

Columns and labels:
[1] = system: endothelial and smooth muscle cells
[2] = system: oxidized cholesterols present in the plasma; conditions: increased concentrations of vitamin E in the blood; some oxidized cholesterols, not all; not reversed once packed into plaques
[3] = system: arterial smooth muscle cell

Compound: CC(C)CCC[C@@H](C)[C@H]1CC[C@H]2[C@@H]3C(=O)C=C4C[C@@H](O)CC[C@]4(C)[C@H]3CC[C@]12C [7-Keto, 5-Cholesten-3β-ol-7-one]
- cytotoxicity relative to the other oxidized cholesterols studied (cells): most cytotoxic
- induction of apoptosis [1]: able to induce apoptosis
- apoptosis in fibroblasts (fibroblasts): did not cause apoptosis

Compound: vitamin E
- lowering the amount of oxidized cholesterols in plasma [2]: effective in lowering the amount of some oxidized cholesterols

Compound: C[C@H](CCCC(C)(C)O)[C@H]1CC[C@H]2[C@@H]3CC=C4C[C@@H](O)CC[C@]4(C)[C@H]3CC[C@]12C [25OH, 25-hydroxycholesterol]
- changes in the arterial smooth muscle cell [3]: causes changes

Compound: CC(C)CCC[C@@H](C)[C@H]1CC[C@H]2[C@@H]3[C@@H](O)C=C4C[C@@H](O)CC[C@]4(C)[C@H]3CC[C@]12C [7B, 7β-hydroxycholesterol]
- induction of apoptosis ([1]; cells of the vascular wall): able to induce apoptosis
- apoptosis in fibroblasts (fibroblasts; necrosis occurred instead): did not cause apoptosis
